Data published in US4211769A, “Preparations for vaginal administration” (Takeda Chemical Industries, Ltd., priority 1977, dated 1980).
Where two headings read alike, the source gives them in different places.

How the values were obtained:
[1] = tested on: matured female SD rats; assay type: in vivo, rat; details: vaginal, aqueous solution with 10% citric acid at pH 2.0
Procedure: A synthetic peptide (monoacetate.pentahydrate; (Pyr)Glu-His-Trp-Ser-Tyr-D-Leu-Leu-Arg-Pro-NH-C2 H5) was dissolved in aliquots of Clark-Lubs buffer [J. Bact. 2, (1), 109, 191(1971) [or Sorensen's buffer [Ergeb.Physiol. 12, 3931 (1912)] at pH 2-7 and each solution was supported on a piece (substantially-predetermined volume) of cotton and administered into the vaginas of rats to investigate the pH dependence of the ovulation-stimulating activity of the peptide.
Using matured female SD rats (120-150 days, body weights from 250 to 350 g), each preparation was vaginally administered during the diestrus and the animal was autopsied next morning to check for the occurrence of ovulation based on the presence or absence of ova in the ampulla.
The same peptide as that used in Example 12 was dissolved in 0.238 mol/liter aqueous solutions of various water-soluble aliphatic carboxylic acids which had been previously adjusted to pH 3.5 with small amounts of 10 N--NaOH. […]
The same peptide as used in Example 12 was employed as the active component. Citric acid was added to aliquots of phthalate buffer (pH 3.5) at the levels of addition of 1, 2, 5, 7 and 10% (W/V) and the pH of each solution was readjusted to pH 3.5 with a small amount of concentrated NaOH. […]

[2] = tested on: rat; assay type: in vivo
From the text: In terms of ovulation-stimulating action, a 30 times increase of stimulating effect was obtained over the control (without carboxylic acid) in the case of natural type LH-RH (Table 1). […] It is clear that a given pharmacological effect can be obtained at a dose equivalent to 5.2 times the intravenous dose or 3.1 times the subcutaneous dose. […] In view of these facts, it is obvious that the vaginal administration according to this invention is a very advantageous method of medication.
Thus, to achieve a given ovulation-stimulatingactivity, the vaginal preparation according to this invention requires only 2.6 times as much of peptide as by the intravenous route and 1.7 times as much of peptide as by the subcutaneous route. The unusual effectiveness of the vaginal preparation of this invention will also be apparent in view of the fact that oral administration requires 1900 times as much of peptide as by the intravenous route, rectal administration requires 82 times the dosage by the intravenous route, and vaginal administration with the oleaginous basis (Witepsol® S55) requires 26 times as much of peptide as by the intravenous route.

CCNC(=O)[C@@H]1CCCN1C(=O)[C@H](CCCNC(=N)N)NC(=O)[C@H](CC(C)C)NC(=O)[C@@H](CC(C)C)NC(=O)[C@H](Cc1ccc(O)cc1)NC(=O)[C@H](CO)NC(=O)[C@H](Cc1c[nH]c2ccccc12)NC(=O)[C@H](Cc1c[nH]cn1)NC(=O)[C@@H]1CCC(=O)N1 [peptide of Example 12, (Pyr)Glu-His-Trp-Ser-Tyr-D-Leu-Leu-Arg-Pro-NH-C2 H5]
ED50, ovulation-stimulating activity [1]: 9.9 ng/100 g (body weight of rat) | ED50, ovulation-stimulating activity ([2]; intravenous route): 3.8 ng/100 g (body weight of rat) | ED50, ovulation-stimulating activity ([2]; subcutaneous route): 5.8 ng/100 g (body weight of rat)
